Patent US12427157B2, “Methods for treatment of diseases involving acidic or hypoxic diseased tissues” (Cybrexa 1, Inc., priority 2018, dated 2025)
Residues, ends and D or L forms follow the SMILES beside them. *: point of attachment. X6 = CNCc1ccc(-c2c3c4c(cc(F)cc4n2[C@@H](CC(C)C)NC(=O)OCCS*)C(=O)NCC3)cc1; X26 = C[C@H](COC(=O)N1CCC[C@@H](c2ccc(-n3cc4cccc(C(N)=O)c4n3)cc2)C1)S*; X20 = C[C@]12CCCN1C1=NNC(=O)c3cc(F)cc4c3c1c(n4CNC(=O)OCCS*)C2

Target: PARP (Homo sapiens, UniProt P09874)
Assay: Enzymatic Assay 2: HT Universal Chemiluminescent PARP Assay of cleaved compounds;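 further: PARP reaction with activated DNA run 1 h at room temperature, product detected via streptavidin-HRP and luminescence endpoint reading on a plate reader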
Details: read-out: IC50 Enzymatic Assay 2; Examples cleaved per Example A (crude cleavage solution); R^8H starting materials as such

Sequence of PARP (P09874 whole entry): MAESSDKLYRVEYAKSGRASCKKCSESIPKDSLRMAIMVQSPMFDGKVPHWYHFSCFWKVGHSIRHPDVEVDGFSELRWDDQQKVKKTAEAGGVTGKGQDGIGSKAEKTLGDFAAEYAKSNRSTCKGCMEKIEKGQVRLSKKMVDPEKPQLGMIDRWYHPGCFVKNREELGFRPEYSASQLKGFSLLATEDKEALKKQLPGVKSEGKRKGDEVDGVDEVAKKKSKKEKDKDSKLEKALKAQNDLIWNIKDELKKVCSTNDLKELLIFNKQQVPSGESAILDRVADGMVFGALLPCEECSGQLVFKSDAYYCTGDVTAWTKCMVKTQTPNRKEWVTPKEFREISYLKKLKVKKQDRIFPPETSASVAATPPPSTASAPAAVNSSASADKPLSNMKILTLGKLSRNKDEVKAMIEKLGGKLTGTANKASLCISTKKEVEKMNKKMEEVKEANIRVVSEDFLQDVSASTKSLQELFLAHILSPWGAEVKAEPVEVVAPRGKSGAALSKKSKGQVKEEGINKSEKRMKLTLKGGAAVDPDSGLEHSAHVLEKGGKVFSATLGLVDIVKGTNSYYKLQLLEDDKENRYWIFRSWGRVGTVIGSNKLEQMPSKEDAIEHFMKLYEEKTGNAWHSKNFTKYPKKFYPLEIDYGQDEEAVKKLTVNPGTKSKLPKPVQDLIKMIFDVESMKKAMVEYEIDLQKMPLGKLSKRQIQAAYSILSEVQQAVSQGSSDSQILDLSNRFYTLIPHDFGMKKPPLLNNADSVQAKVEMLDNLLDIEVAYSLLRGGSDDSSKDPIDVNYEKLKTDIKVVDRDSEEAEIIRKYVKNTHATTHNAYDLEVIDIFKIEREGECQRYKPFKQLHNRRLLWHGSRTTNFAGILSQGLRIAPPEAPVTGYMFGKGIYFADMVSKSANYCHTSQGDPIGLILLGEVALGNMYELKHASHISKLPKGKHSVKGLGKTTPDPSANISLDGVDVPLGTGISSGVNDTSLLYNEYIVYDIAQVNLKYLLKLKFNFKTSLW

| SMILES | IC50 |
| --- | --- |
| CC[C@H](C)[C@H](NC(=O)[C@@H]1CCCN1C(=O)[C@H](CC(N)=O)NC(=O)[C@H](CCC(N)=O)NC(=O)[C@H](CCC(=O)O)NC(=O)[C@H](C)N)C(=O)N[C@@H](Cc1ccc(O)cc1)C(=O)N[C@@H](Cc1c[nH]c2ccccc12)C(=O)N[C@@H](C)C(=O)N[C@@H](CCCNC(=N)N)C(=O)N[C@@H](Cc1ccc(O)cc1)C(=O)N[C@@H](C)C(=O)N[C@@H](CC(=O)O)C(=O)N[C@@H](Cc1c[nH]c2ccccc12)C(=O)N[C@@H](CC(C)C)C(=O)N[C@@H](Cc1ccccc1)C(=O)N[C@H](C(=O)N[C@H](C(=O)N1CCC[C@H]1C(=O)N[C@@H](CC(C)C)C(=O)N[C@@H](CC(C)C)C(=O)N[C@@H](CC(C)C)C(=O)N[C@@H](CC(C)C)C(=O)N[C@@H](CC(=O)O)C(=O)N[C@@H](CC(C)C)C(=O)N[C@@H](C)C(=O)N[C@@H](CC(C)C)C(=O)N[C@@H](CC(C)C)C(=O)N[C@H](C(=O)N[C@@H](CC(=O)O)C(=O)N[C@@H](C)C(=O)N[C@@H](CC(=O)O)C(=O)N[C@@H](CCC(=O)O)C(=O)N[C@@H](CSSCCOC(=O)N[C@H](CC(C)C)n1c(-c2ccc(CNC)cc2)c2c3c(cc(F)cc31)C(=O)NCC2)C(=O)NCC(=O)O)C(C)C)[C@@H](C)O)[C@@H](C)O [Example 35] (H-AEQNPIYWARYADWLFTTPLLLLDLALLVDADEC(X6)G-OH; N-terminus and C-terminus assumed) | 3.1 nM |
| CC(C)C[C@H](NC(=O)[C@H](Cc1ccc(O)cc1)NC(=O)[C@H](C)NC(=O)[C@H](CCCNC(=N)N)NC(=O)[C@H](Cc1c[nH]c2ccccc12)NC(=O)[C@@H]1CCCN1C(=O)[C@H](CC(N)=O)NC(=O)[C@H](CCC(N)=O)NC(=O)[C@H](CC(=O)O)NC(=O)[C@H](CC(=O)O)NC(=O)[C@H](C)N)C(=O)N[C@@H](CC(=O)O)C(=O)N[C@@H](CC(C)C)C(=O)N[C@@H](CC(C)C)C(=O)N[C@@H](Cc1ccccc1)C(=O)N1CCC[C@H]1C(=O)N[C@H](C(=O)N[C@@H](CC(=O)O)C(=O)N[C@H](C(=O)N[C@@H](CC(C)C)C(=O)N[C@@H](CC(C)C)C(=O)N[C@@H](CC(C)C)C(=O)N[C@@H](CC(=O)O)C(=O)N[C@@H](CC(C)C)C(=O)N[C@@H](CC(C)C)C(=O)N[C@@H](Cc1c[nH]c2ccccc12)C(=O)N[C@@H](CSSc1ccc(COC(=O)N(C)Cc2ccc(-c3[nH]c4cc(F)cc5c4c3CCNC5=O)cc2)cc1)C(=O)NCC(=O)O)[C@@H](C)O)[C@@H](C)O [Example 36] | 2.2 nM |
| CC(C)C[C@H](NC(=O)[C@H](Cc1ccc(O)cc1)NC(=O)[C@H](C)NC(=O)[C@H](CCCNC(=N)N)NC(=O)[C@H](Cc1c[nH]c2ccccc12)NC(=O)[C@@H]1CCCN1C(=O)[C@H](CC(N)=O)NC(=O)[C@H](CCC(N)=O)NC(=O)[C@H](CC(=O)O)NC(=O)[C@H](CC(=O)O)NC(=O)[C@H](C)N)C(=O)N[C@@H](CC(=O)O)C(=O)N[C@@H](CC(C)C)C(=O)N[C@@H](CC(C)C)C(=O)N[C@@H](Cc1ccccc1)C(=O)N1CCC[C@H]1C(=O)N[C@H](C(=O)N[C@@H](CC(=O)O)C(=O)N[C@H](C(=O)N[C@@H](CC(C)C)C(=O)N[C@@H](CC(C)C)C(=O)N[C@@H](CC(C)C)C(=O)N[C@@H](CC(=O)O)C(=O)N[C@@H](CC(C)C)C(=O)N[C@@H](CC(C)C)C(=O)N[C@@H](Cc1c[nH]c2ccccc12)C(=O)N[C@@H](CC(=O)O)C(=O)N[C@@H](C)C(=O)N[C@@H](CC(=O)O)C(=O)N[C@@H](CCC(=O)O)C(=O)N[C@@H](CSSc1ccc(COC(=O)N(C)Cc2ccc(-c3[nH]c4cc(F)cc5c4c3CCNC5=O)cc2)cc1)C(=O)NCC(=O)O)[C@@H](C)O)[C@@H](C)O [Example 37] | 3.1 nM |
| CC[C@H](C)[C@H](NC(=O)[C@@H]1CCCN1C(=O)[C@H](CC(N)=O)NC(=O)[C@H](CCC(N)=O)NC(=O)[C@H](CCC(=O)O)NC(=O)[C@H](C)N)C(=O)N[C@@H](Cc1ccc(O)cc1)C(=O)N[C@@H](Cc1c[nH]c2ccccc12)C(=O)N[C@@H](C)C(=O)N[C@@H](CCCNC(=N)N)C(=O)N[C@@H](Cc1ccc(O)cc1)C(=O)N[C@@H](C)C(=O)N[C@@H](CC(=O)O)C(=O)N[C@@H](Cc1c[nH]c2ccccc12)C(=O)N[C@@H](CC(C)C)C(=O)N[C@@H](Cc1ccccc1)C(=O)N[C@H](C(=O)N[C@H](C(=O)N1CCC[C@H]1C(=O)N[C@@H](CC(C)C)C(=O)N[C@@H](CC(C)C)C(=O)N[C@@H](CC(C)C)C(=O)N[C@@H](CC(C)C)C(=O)N[C@@H](CC(=O)O)C(=O)N[C@@H](CC(C)C)C(=O)N[C@@H](C)C(=O)N[C@@H](CC(C)C)C(=O)N[C@@H](CC(C)C)C(=O)N[C@H](C(=O)N[C@@H](CC(=O)O)C(=O)N[C@@H](C)C(=O)N[C@@H](CC(=O)O)C(=O)N[C@@H](CCC(=O)O)C(=O)N[C@@H](CSSCCOC(=O)NCn1c2c3c4c(cc(F)cc41)C(=O)NN=C3N1CCC[C@]1(C)C2)C(=O)NCC(=O)O)C(C)C)[C@@H](C)O)[C@@H](C)O [Example 38] (H-AEQNPIYWARYADWLFTTPLLLLDLALLVDADEC(X20)G-OH; N-terminus and C-terminus assumed) | 2.8 nM |
| CC(C)C[C@H](NC(=O)[C@H](Cc1ccc(O)cc1)NC(=O)[C@H](C)NC(=O)[C@H](CCCNC(=N)N)NC(=O)[C@H](Cc1c[nH]c2ccccc12)NC(=O)[C@@H]1CCCN1C(=O)[C@H](CC(N)=O)NC(=O)[C@H](CCC(N)=O)NC(=O)[C@H](CC(=O)O)NC(=O)[C@H](CC(=O)O)NC(=O)[C@H](C)N)C(=O)N[C@@H](CC(=O)O)C(=O)N[C@@H](CC(C)C)C(=O)N[C@@H](CC(C)C)C(=O)N[C@@H](Cc1ccccc1)C(=O)N1CCC[C@H]1C(=O)N[C@H](C(=O)N[C@@H](CC(=O)O)C(=O)N[C@H](C(=O)N[C@@H](CC(C)C)C(=O)N[C@@H](CC(C)C)C(=O)N[C@@H](CC(C)C)C(=O)N[C@@H](CC(=O)O)C(=O)N[C@@H](CC(C)C)C(=O)N[C@@H](CC(C)C)C(=O)N[C@@H](Cc1c[nH]c2ccccc12)C(=O)N[C@@H](CSSC1(COC(=O)N(C)Cc2ccc(-c3[nH]c4cc(F)cc5c4c3CCNC5=O)cc2)CCC1)C(=O)NCC(=O)O)[C@@H](C)O)[C@@H](C)O [Example 44] | 1.5 nM |
| CC(C)C[C@H](NC(=O)[C@H](Cc1ccc(O)cc1)NC(=O)[C@H](C)NC(=O)[C@H](CCCNC(=N)N)NC(=O)[C@H](Cc1c[nH]c2ccccc12)NC(=O)[C@@H]1CCCN1C(=O)[C@H](CC(N)=O)NC(=O)[C@H](CCC(N)=O)NC(=O)[C@H](CC(=O)O)NC(=O)[C@H](CC(=O)O)NC(=O)[C@H](C)N)C(=O)N[C@@H](CC(=O)O)C(=O)N[C@@H](CC(C)C)C(=O)N[C@@H](CC(C)C)C(=O)N[C@@H](Cc1ccccc1)C(=O)N1CCC[C@H]1C(=O)N[C@H](C(=O)N[C@@H](CC(=O)O)C(=O)N[C@H](C(=O)N[C@@H](CC(C)C)C(=O)N[C@@H](CC(C)C)C(=O)N[C@@H](CC(C)C)C(=O)N[C@@H](CC(=O)O)C(=O)N[C@@H](CC(C)C)C(=O)N[C@@H](CC(C)C)C(=O)N[C@@H](Cc1c[nH]c2ccccc12)C(=O)N[C@@H](CC(=O)O)C(=O)N[C@@H](C)C(=O)N[C@@H](CC(=O)O)C(=O)N[C@@H](CCC(=O)O)C(=O)N[C@@H](CSS[C@H](C)COC(=O)N1CCC[C@@H](c2ccc(-n3cc4cccc(C(N)=O)c4n3)cc2)C1)C(=O)NCC(=O)O)[C@@H](C)O)[C@@H](C)O [Example 45] | 3.2 nM |
| CC(C)C[C@H](NC(=O)[C@H](Cc1ccc(O)cc1)NC(=O)[C@H](C)NC(=O)[C@H](CCCNC(=N)N)NC(=O)[C@H](Cc1c[nH]c2ccccc12)NC(=O)[C@@H]1CCCN1C(=O)[C@H](CC(N)=O)NC(=O)[C@H](CCC(N)=O)NC(=O)[C@H](CC(=O)O)NC(=O)[C@H](CC(=O)O)NC(=O)[C@H](C)N)C(=O)N[C@@H](CC(=O)O)C(=O)N[C@@H](CC(C)C)C(=O)N[C@@H](CC(C)C)C(=O)N[C@@H](Cc1ccccc1)C(=O)N1CCC[C@H]1C(=O)N[C@H](C(=O)N[C@@H](CC(=O)O)C(=O)N[C@H](C(=O)N[C@@H](CC(C)C)C(=O)N[C@@H](CC(C)C)C(=O)N[C@@H](CC(C)C)C(=O)N[C@@H](CC(=O)O)C(=O)N[C@@H](CC(C)C)C(=O)N[C@@H](CC(C)C)C(=O)N[C@@H](Cc1c[nH]c2ccccc12)C(=O)N[C@@H](CC(=O)O)C(=O)N[C@@H](C)C(=O)N[C@@H](CC(=O)O)C(=O)N[C@@H](CCC(=O)O)C(=O)N[C@@H](CSS[C@@H](C)COC(=O)N1CCC[C@@H](c2ccc(-n3cc4cccc(C(N)=O)c4n3)cc2)C1)C(=O)NCC(=O)O)[C@@H](C)O)[C@@H](C)O [Example 46] | 3.7 nM |
| CC[C@H](C)[C@H](NC(=O)[C@@H]1CCCN1C(=O)[C@H](CC(N)=O)NC(=O)[C@H](CCC(N)=O)NC(=O)[C@H](CCC(=O)O)NC(=O)[C@H](C)N)C(=O)N[C@@H](Cc1ccc(O)cc1)C(=O)N[C@@H](Cc1c[nH]c2ccccc12)C(=O)N[C@@H](C)C(=O)N[C@@H](CCCNC(=N)N)C(=O)N[C@@H](Cc1ccc(O)cc1)C(=O)N[C@@H](C)C(=O)N[C@@H](CC(=O)O)C(=O)N[C@@H](Cc1c[nH]c2ccccc12)C(=O)N[C@@H](CC(C)C)C(=O)N[C@@H](Cc1ccccc1)C(=O)N[C@H](C(=O)N[C@H](C(=O)N1CCC[C@H]1C(=O)N[C@@H](CC(C)C)C(=O)N[C@@H](CC(C)C)C(=O)N[C@@H](CC(C)C)C(=O)N[C@@H](CC(C)C)C(=O)N[C@@H](CC(=O)O)C(=O)N[C@@H](CC(C)C)C(=O)N[C@@H](C)C(=O)N[C@@H](CC(C)C)C(=O)N[C@@H](CC(C)C)C(=O)N[C@H](C(=O)N[C@@H](CC(=O)O)C(=O)N[C@@H](C)C(=O)N[C@@H](CC(=O)O)C(=O)N[C@@H](CCC(=O)O)C(=O)N[C@@H](CSS[C@H](C)COC(=O)N1CCC[C@@H](c2ccc(-n3cc4cccc(C(N)=O)c4n3)cc2)C1)C(=O)NCC(=O)O)C(C)C)[C@@H](C)O)[C@@H](C)O [Example 47] (H-AEQNPIYWARYADWLFTTPLLLLDLALLVDADEC(X26)G-OH; N-terminus and C-terminus assumed) | 2.4 nM |
